Legend:
[1] = Liver araCTP and liver targeting with continuous i.v. infusion in rats
Source text: A saline filled blunt PE-50 tubing catheter (Intramedic, Becton Dickinson, Sparks, Md.) was inserted into the jugular vein, exteriorized between the scapulae and connected to a swivel-tethering constant infusion system (Lomir Biomedical, Inc., Malone, N.Y. and Harvard Apparatus, Inc., South Natick, Mass.). The tubing was filled with heparinized saline and sealed, and the animals allowed to recover for one to seven days.
After the various durations of infusion the animals were anesthetized by intra-catheter injections of the anesthetic mix described above. Blood samples were obtained via cardiac puncture using a 23-gauge needle attached to a heparin coated 3 cc syringe.
In those studies, liver, plasma and bone marrow samples were obtained at necropsy to evaluate liver targeting.
Results are expressed as mean±standard error of the mean. When appropriate, AUC was calculated from time zero to the last time-point of the study. Liver targeting indices (LTIs) were calculated by dividing the liver araCTP AUC by the AUC for plasma araC (plasma LTI) or by the AUC for bone marrow araCTP (bone marrow LTI) for each compound. For the continuous infusion studies, the steady state araCTP levels were divided by the steady state plasma araC levels.

human liver microsomes = assay: Enzyme kinetics of prodrug activation to araCMP in human liver microsomes
[2] = Rat acute toxicity, 24 hr continuous i.v. infusion; type: in vivo; conditions: rats, 2000 mg/kg/24 hrs continuous i.v. infusion
Description: Male and female Simonsen rats were instrumented for continuous infusion as described in Example C. On the day of treatment, the rats were hooked up to the constant infusion tether and given free access to food and water. Three male and three female rats were treated Compound A at a dose of 2000 mg/kg/24 hrs using a flow rate of 2.08 ml/kg/hr. Compound A was dissolved at 42.5 mg/ml in water and the pH adjusted to 4 with 1M HCl. The osmolarity was adjusted to ˜300 mOsm using 5M NaCl. As a control, 2 male rats were infused with pH 4 saline for the same period of time. The appearance and disposition of the rats was monitored regularly and notes about their behavior recorded every 1-3 hrs during the working day.
The animals were anesthetized in a chamber supplied via a Fluotec 3 vaporizer with 5% isoflurane (Abbot Laboratories, NDC 0074-3292-02) in 100% oxygen at a flow rate of 1.5 to 2 liters per minute. […] The blood from each animal was divided between K2-EDTA-containing microtainer tubes (Becton Dickinson, 36/5974) and microtainer tubes with gel separators for serum (Becton Dickinson, 36/5956) and lithium heparin for plasma collection (Becton Dickinson, 36/5958). If possible, urine was removed from the bladder using a 23-gauge needle attached to a 3 cc syringe. Tissue samples were collected in the following order: liver, kidneys, small intestine, bladder and bone marrow. The small intestine was divided into three equal portions to represent samples from the duodenum, jejunum and ileum; fecal matter was manually removed by gentle sliding pressure using a blunt forceps. From each tissue, a portion was placed in 10% buffered formalin for histology.
For cell counting, […] of EDTA-treated blood or PBS-suspended bone marrow flush was mixed with 450 μL or 950 μL, respectively, nuclear staining solution containing 0.19 mg/mL crystal violet (Sigma # C-1658, lot 112H3660) in 1 M acetic acid, and incubated at room temperature for at least 5 min. After brief vortexing, a 10 μl aliquot of the mixture was placed in a hemocytometer and cells were counted using a Nikon Optiphot-2 microscope. The blood samples were counted under a 40× objective to evaluate the number of mononuclear cells (lymphocytes and monocytes) and polymorphonuclear cells (PMN, including granulocytes of the neutrophil, eosinophil and basophil type). Nucleated bone marrow cells were counted under a 10× objective.
EDTA-treated blood samples were submitted to LabCorp (San Diego, Calif.) for hematology analysis including erythrocyte and platelet numbers, hemoglobin, and hematocrit. Serum chemistry analysis was also performed by LabCorp. […]

Aqueous stability = type: physicochemical; conditions: 100 mM citrate, pH5.0, 37° C, 50 μM
Description: Diluted solutions (50 μM) were incubated at 37° C. in a Fisher Scientific dry bath incubator (catalog # 11-718-2) with samples collected every 24 hours and stored at −80° C. Plasma samples (100 μL) were quenched with 1 mL of acetonitrile. […] Samples were resuspended in 120 μL of mobile phase buffer before HPLC injection.
Samples were analyzed on an HP1090 or HP1100 (Hewlett Packard) HPLC using a C-18 Alltech Econosphere column, 150 mm×4.6 mm (catalog # 70065), with a C-18 Alltech Econosphere guard column, 7.5 mm×4.6 mm (catalog # 96121). Samples were eluted with a methanol gradient: 0% for 5 minutes, then increasing to 10% at 10 minutes, 30% at 20 minutes, and 60% at 25 minutes. The column was allowed to equilibrate in 0% methanol for 10 minutes before the next injection. The flow rate was 1 mL/minute with a column temperature of 40° C. Prodrugs eluted around 19.5 minutes and were monitored by UV absorbance at 280 nm. For prodrugs in aqueous conditions, the same method was employed except the methanol gradient was as follows: 0% for 5 minutes, increasing to 10% at 10 minutes, and 30% at 20 minutes with prodrug eluting around 20 minutes.

[3] = rats, 200 mg CE/kg/day continuous intravenous infusion

## Nc1ccn([C@@H]2O[C@H](CO[P@@]3(=O)OCC[C@@H](c4ccncc4)O3)[C@@H](O)[C@@H]2O)c(=O)n1 [Compound A, 2(1H)-Pyrimidinone, 4-amino-1-[5-O-[(2R,4S)-2-oxido-4-(4-pyridinyl)-1,3,2-dioxaphosphorinan-2-yl]-β-D-arabinofuranosyl]]
[1]; administered by continuous intravenous infusion
  reduction of peripheral exposure (liver targeting): ~10 fold
[1]; [3]
  LTI @ 24 hrs (Liver/plasma): 7.5 nmol/g/μM
  Liver araCTP 24 hr: 12.0 nmol/g
  Liver araCTP @ 4 hr: 12.8 nmol/g
  Plasma Prodrug steady state: 40 to 50 µM
  Plasma araC steady state: ~1.6 µM
[1]; rats, continuous infusion 200 mg/kg/24 hours
  steady state liver araCTP levels by 4 hours: 12.84 ± 1.50 nmol/g
[1]; rats, continuous infusion 200 mg/kg/24 hours, 48 hr
  average liver araCTP for the remaining 44 hours: 13 ± 1 nmol/g
Human liver microsomes; activation to araCMP, 2 mg/mL human liver microsomes lot RQX, 1 mM NADPH, pH 7.4, 37° C, 5 min
  Vmax: 0.11 ± 0.02 nmol/min/mg
Human liver microsomes; activation to araCMP, human liver microsomes lot RQX
  Km: 1.08 ± 0.27 mM
Human liver microsomes; human liver microsomes lot RQX
  intrinsic clearance / activation rate relative to Compound B: 2.6 fold
[2]
  serum chemistry and hematology parameters: generally within normal ranges
  serum triglycerides levels: outside the normal range
[2]; 24 hr treatment
  overt toxicity: no overt toxicity was noted
[2]; 24 hrs
  tolerability: well tolerated
Aqueous stability
  t90 in aqueous solution: 2 days
